Data on one substance can be found in article PMC2774234 (Molecular cancer research : MCR, 2009).

The data set concerns Prx1. Description: Immunoblot of Prx1 after transient Prx1 siRNA transfection of LNCaP cells. The format is cell-based, human. The note with it: 75 nM siRNA. (In general: In western blotting, separated proteins are transferred to a membrane and probed.)

With “11838: Ambion siRNA directed against exon 6 of Prx1; sense 5'-GGCUACUGGUUUGUAUGAUTT-3' (antisense AUCAUACAAACCAGUAGCCTG; chemistry not given here) [compound 11838]”, the “expression of Prx1 (immunoblot)” value was “essentially abolished the expression of Prx1”.
